Data published in patent US6656932B2, “Benzo thiadiazine matrix metalloproteinase inhibitors” (Warner-Lambert Company, priority 2001, dated 2003).
Counter-ions that a name gives are not always drawn.

Target: MMP-13CD (catalytic domain of collagenase 3) (Homo sapiens, UniProt P45452)
Experiment: Thiopeptolide hydrolysis assay, MMP-13CD
Assay type: biochemical
Conditions: Table 1; thiopeptolide substrate, HEPES pH 7.0; read-out: MMP13 (CD) IC50
From the text: (§1) The invention compounds of Formula I have been evaluated in standard assays for their ability to inhibit the catalytic activity of various MMP enzymes.
(§2) Thiopeptolide substrates show virtually no decomposition or hydrolysis at or below neutral pH in the absence of a matrix metalloproteinase enzyme.
(§3) Several representative compounds have been evaluated for their ability to inhibit various matrix metalloproteinase enzymes.

IC50 [µM]	Structure (SMILES)
0.2	CN1C(=O)N(Cc2ccccc2)S(=O)(=O)c2cc(C(=O)OCc3ccccc3)ccc21 [Example 1, 2-Benzyl-4-methyl-1,1,3-trioxo-1,2,3,4-tetrahydro-1l^6-benzo[1,2,4]thiadiazine-7-carboxylic Acid Benzyl Ester]
0.88	CN1C(=O)N(Cc2ccccc2)S(=O)(=O)c2cc(C(=O)NCc3ccccc3)ccc21 [Example 2, 2-Benzyl-4-methyl-1,1,3-trioxo-1,2,3,4-tetrahydro-1l^6-benzo[1,2,4]thiadiazine-7-carboxylic Acid Benzylamide]
0.51	CN1C(=O)N(Cc2ccccc2)S(=O)(=O)c2cc(C(=O)NCc3ccncc3)ccc21 [Example 3, 2-Benzyl-4-methyl-1,1,3-trioxo-1,2,3,4-tetrahydro-1l^6-benzo[1,2,4]thiadiazine-7-carboxylic acid (pyridin-4-ylmethyl)-amide]

Same assay, conditions: Table 2; thiopeptolide substrate, HEPES pH 7.0; read-out: IC50 (μM) Versus Certain MMPs: MMP13 (CD)

Structure (SMILES)	IC50 [µM]
CN1C(=O)N(Cc2ccccc2)S(=O)(=O)c2cc(C(=O)NCc3ccc4[nH]ccc4c3)ccc21 [Example 4, 2-Benzyl-4-methyl-1,1,3-trioxo-1,2,3,4-tetrahydro-1l^6-benzo[1,2,4]thiadiazine-7-carboxylic acid (1H-indol-5-ylmethyl)-amide]	> 30
CN1C(=O)N(Cc2ccccc2)S(=O)(=O)c2cc(C(=O)NCc3ccc(CCS(=O)(=O)NC(C)(C)C)cc3)ccc21 [Example 6, 2-Benzyl-4-methyl-1,1,3-trioxo-1,2,3,4-tetrahydro-1l^6-benzo[1,2,4]thiadiazine-7-carboxylic acid 4-(2-tert-butylsulfamoyl-ethyl)-benzylamide]	> 30
CN1C(=O)N(Cc2ccccc2)S(=O)(=O)c2cc(C(=O)NCc3cc4ccccc4[nH]3)ccc21 [Example 7, 2-Benzyl-4-methyl-1,1,3-trioxo-1,2,3,4-tetrahydro-1l^6-benzo[1,2,4]thiadiazine-7-carboxylic acid (1H-indol-2-ylmethyl)-amide]	> 30
CN1C(=O)N(Cc2ccccc2)S(=O)(=O)c2cc(C(=O)NCc3ccc(CCS(N)(=O)=O)cc3)ccc21 [Example 8, 2-Benzyl-4-methyl-1,1,3-trioxo-1,2,3,4-tetrahydro-1l^6-benzo[1,2,4]thiadiazine-7-carboxylic acid 4-(2-sulfamoyl-ethyl)-benzylamide]	63
CN1C(=O)N(Cc2ccc(C(=O)OC(C)(C)C)cc2)S(=O)(=O)c2cc(C(=O)NCc3ccccc3)ccc21 [Example 10, 4-(7-Benzylcarbamoyl-4-methyl-1,1,3-trioxo-3,4-dihydro-1H-1l^6-benzo[1,2,4]thiadiazin-2-ylmethyl)-benzoic Acid Tert-Butyl Ester]	> 30
COc1ccc(CNC(=O)c2ccc3c(c2)S(=O)(=O)N(Cc2ccc(C(=O)OC(C)(C)C)cc2)C(=O)N3C)cc1 [Example 12, 4-[7-(4-Methoxy-benzylcarbamoyl)-4-methyl-1,1,3-trioxo-3,4-dihydro-1H-1l^6-benzo[1,2,4]thiadiazin-2-ylmethyl]-Benzoic Acid Tert-Butyl Ester]	> 30
COc1ccc(CNC(=O)c2ccc3c(c2)S(=O)(=O)N(Cc2ccc(S(C)(=O)=O)cc2)C(=O)N3C)cc1 [Example 15, 2-(4-Methanesulfonyl-benzyl)-4-methyl-1,1,3-trioxo-1,2,3,4-tetrahydro-1l^6-benzo[1,2,4]thiadiazine-7-carboxylic acid 4-methoxy-benzylamide]	11
COc1ccc(CNC(=O)c2ccc3c(c2)S(=O)(=O)N(Cc2ccc([N+](=O)[O-])cc2)C(=O)N3C)cc1 [Example 17, 4-Methyl-2-(4-nitro-benzyl)-1,1,3-trioxo-1,2,3,4-tetrahydro-1l^6-benzo[1,2,4]thiadiazine-7-carboxylic acid 4-methoxy-benzylamide]	0.615
COc1ccc(CNC(=O)c2ccc3c(c2)S(=O)(=O)N(Cc2ccc(-c4ccccc4)cc2)C(=O)N3C)cc1 [Example 23, 2-Biphenyl-4-ylmethyl-4-methyl-1,1,3-trioxo-1,2,3,4-tetrahydro-1l^6-benzo[1,2,4]thiadiazine-7-carboxylic acid 4-methoxy-benzylamide]	> 30
COc1ccc(CNC(=O)c2ccc3c(c2)S(=O)(=O)N(Cc2ccc(C(=O)OCCN(C)C)cc2)C(=O)N3C)cc1 [Example 26, 4-[7-(4-Methoxy-benzylcarbamoyl)-4-methyl-1,1,3-trioxo-3,4-dihydro-1H-1l^6-benzo[1,2,4]thiadiazin-2-ylmethyl]-benzoic acid 2-dimethylamino-ethyl Ester Hydrochloride]	2.2
COc1ccc(CNC(=O)c2ccc3c(c2)S(=O)(=O)N(Cc2ccc(N)cc2)C(=O)N3C)cc1 [Example 33, 2-(4-Amino-benzyl)-4-methyl-1,1,3-trioxo-1,2,3,4-tetrahydro-1l^6-benzo[1,2,4]thiadiazine-7-carboxylic acid 4-methoxy-benzylamide]	8.8
CCC#CCN1C(=O)N(C)c2ccc(C(=O)NCc3ccc(OC)cc3)cc2S1(=O)=O [Example 35, 4-methyl-1,1,3-trioxo-2-pent-2-ynyl-1,2,3,4-tetrahydro-1l^6-benzo[1,2,4]thiadiazine-7-carboxylic Acid 4-methoxy-benzylamide]	1.4

Second part, the molecule after the results:

IC50 [µM]	Structure (SMILES)
6.3	COc1ccc(CNC(=O)c2ccc3c(c2)S(=O)(=O)N(C(C)c2ccccc2)C(=O)N3C)cc1 (centres unmarked) [Example 36, 4-Methyl-1,1,3-trioxo-2-(1-phenyl-ethyl)-1,2,3,4-tetrahydro-1l^6-benzo[1,2,4]thiadiazine-7-carboxylic Acid 4-methoxy-benzylamide]
3.2	COc1ccc(CNC(=O)c2ccc3c(c2)S(=O)(=O)N(CCCCCC#N)C(=O)N3C)cc1 [Example 37, 2-(5-Cyano-pentyl)-4-methyl-1,1,3-trioxo-1,2,3,4.tetrahydro-1l^6-benzo[1,2,4]thiadiazine-7-carboxylic Acid 4-methoxy-benzylamide]
2.2	C/C=C/CN1C(=O)N(C)c2ccc(C(=O)NCc3ccc(OC)cc3)cc2S1(=O)=O [Example 38, 2-(E)-But-2-enyl-4-methyl-1,1,3-trioxo-1,2,3,4-tetrahydro-1l^6-benzo[1,2,4]thiadiazine-7-carboxylic Acid 4-methoxy-benzylamide]
1.5	CC/C=C/CN1C(=O)N(C)c2ccc(C(=O)NCc3ccc(OC)cc3)cc2S1(=O)=O [Example 39, 4-Methyl-1,1,3-trioxo-2-(E)-pent-2-enyl-1,2,3,4-tetrahydro-1l^6-benzo[1,2,4]thiadiazine-7-carboxylic Acid 4-methoxy-benzylamide]
1.7	C=C(C)CN1C(=O)N(C)c2ccc(C(=O)NCc3ccc(OC)cc3)cc2S1(=O)=O [Example 40, 4-Methyl-2-(2-methyl-allyl)-1,1,3-trioxo-1,2,3,4-tetrahydro-1l^6-benzo[1,2,4]thiadiazine-7-carboxylic Acid 4-methoxy-benzylamide]
1.9	COc1ccc(CNC(=O)c2ccc3c(c2)S(=O)(=O)N(CC=C(C)C)C(=O)N3C)cc1 [Example 41, 4-Methyl-2-(3-methyl-but-2-enyl)-1,1,3-trioxo-1,2,3,4-tetrahydro-1l^6-benzo[1,2,4]thiadiazine-7-carboxylic Acid 4-methoxy-benzylamide]
100	COc1ccc(CNC(=O)c2ccc3c(c2)S(=O)(=O)N(CCS(=O)(=O)c2ccc(C)cc2)C(=O)N3C)cc1 [Example 42, 4-Methyl-1,1,3-trioxo-2-[2-(toluene-4-sulfonyl)-ethyl]-1,2,3,4-tetrahydro-1l^6-benzo[1,2,4]thiadiazine-7-carboxylic Acid 4-methoxy-benzylamide]
86	COc1ccc(CNC(=O)c2ccc3c(c2)S(=O)(=O)N(CCNC(=O)c2ccccc2)C(=O)N3C)cc1 [Example 44, 4-Methyl-1,1,3-trioxo-2-{2-[(1-phenyl-methanoyl)-amino]-ethyl}-1,2,3,4-tetrahydro-1l^6-benzo[1,2,4]thiadiazine-7-carboxylic Acid 4-methoxy-benzylamide]
0.7	COc1ccc(CNC(=O)c2ccc3c(c2)S(=O)(=O)N(Cc2ccc4nonc4c2)C(=O)N3C)cc1 [Example 45, 2-Benzo[1,2,5]oxadiazol-5-ylmethyl-4-methyl-1,1,3-trioxo-1,2,3,4-tetrahydro-1l^6-benzo[1,2,4]thiadiazine-7-carboxylic Acid 4-methoxy-benzylamide]
1.7	COC(=O)Nc1cc(CN2C(=O)N(C)c3ccc(C(=O)NCc4ccc(OC)cc4)cc3S2(=O)=O)on1 [Example 46, {5-[7-(4-Methoxy-benzylcarbamoyl)-4-methyl-1,1,3-trioxo-3,4-dihydro-1H-1l^6-benzo[1,2,4]thiadiazin-2-ylmethyl]-isoxazol-3-yl}-carbamic Acid Methyl Ester]
13	COc1ccc(CNC(=O)c2ccc3c(c2)S(=O)(=O)N(Cc2cscn2)C(=O)N3C)cc1 [Example 47, 4-Methyl-1,1,3-trioxo-2-thiazol-4-ylmethyl-1,2,3,4-tetrahydro-1l^6-benzo[1,2,4]thiadiazine-7-carboxylic Acid 4-methoxy-benzylamide]

Target: MMP-3CD (catalytic domain of stromelysin-1) (Homo sapiens, UniProt P08254)
Sequence (P08254 100-272 limits assumed): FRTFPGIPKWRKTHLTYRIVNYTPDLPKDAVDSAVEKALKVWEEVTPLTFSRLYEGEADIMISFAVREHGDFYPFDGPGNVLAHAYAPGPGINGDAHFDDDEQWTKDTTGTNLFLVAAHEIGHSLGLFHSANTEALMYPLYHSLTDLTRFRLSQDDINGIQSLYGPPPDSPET
Experiment: Thiopeptolide hydrolysis assay, MMP-3CD
Assay type: biochemical
Conditions: Table 1; thiopeptolide substrate, MES buffer pH 6.0; read-out: MMP03 (CD) IC50
Procedure: as §1, §2, §3
It should be appreciated that the assay buffer used with MMP-3CD was 50 mM of N-morpholinoethane sulfonate (“MES”) at pH 6.0 rather than the HEPES buffer at pH 7.0 described above.

IC50 [µM]	Structure (SMILES)
85	CN1C(=O)N(Cc2ccccc2)S(=O)(=O)c2cc(C(=O)OCc3ccccc3)ccc21 [Example 1, 2-Benzyl-4-methyl-1,1,3-trioxo-1,2,3,4-tetrahydro-1l^6-benzo[1,2,4]thiadiazine-7-carboxylic Acid Benzyl Ester]

Same assay, conditions: Table 2; thiopeptolide substrate, MES buffer pH 6.0; read-out: IC50 (μM) Versus Certain MMPs: MMP03 (CD)

IC50 [µM]	Structure (SMILES)
16	COc1ccc(CNC(=O)c2ccc3c(c2)S(=O)(=O)N(Cc2ccc([N+](=O)[O-])cc2)C(=O)N3C)cc1 [Example 17, 4-Methyl-2-(4-nitro-benzyl)-1,1,3-trioxo-1,2,3,4-tetrahydro-1l^6-benzo[1,2,4]thiadiazine-7-carboxylic acid 4-methoxy-benzylamide]

Target: T1, MMP-7FL (full-length matrilysin) (Homo sapiens, UniProt P09237)
T1 sequence (P09237 95-267): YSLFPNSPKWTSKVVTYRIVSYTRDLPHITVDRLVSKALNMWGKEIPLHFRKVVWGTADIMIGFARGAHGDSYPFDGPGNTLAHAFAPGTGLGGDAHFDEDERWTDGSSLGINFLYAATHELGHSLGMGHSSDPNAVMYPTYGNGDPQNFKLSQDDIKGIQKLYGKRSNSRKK
Experiment: Thiopeptolide hydrolysis assay, MMP-7FL
Assay type: biochemical
Conditions: Table 1; thiopeptolide substrate, HEPES pH 7.0; read-out: MMP07 (FL) IC50
From the text: as §1, §2, §3

IC50 [µM]	Structure (SMILES)
44	CN1C(=O)N(Cc2ccccc2)S(=O)(=O)c2cc(C(=O)OCc3ccccc3)ccc21 [Example 1, 2-Benzyl-4-methyl-1,1,3-trioxo-1,2,3,4-tetrahydro-1l^6-benzo[1,2,4]thiadiazine-7-carboxylic Acid Benzyl Ester]
